Results: PubChem BioAssay (NCI)
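Step 1: Grow cells in 96-well plates. Step 2: Expose to compound for 48 hours at 5 concentrations. Step 3: Interpolate endpoints linearly; if unreached, use highest concentration. TGI is the concentration that stops growth completely.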

Tests used:
Experiment in all cases: NCI tumour cell line growth inhibition, 48 h
[1] = test system: U251 CNS
[2] = test system: EKVX NSCLC
[3] = test system: ACHN renal
[4] = test system: HCC-2998 colon
[5] = test system: HT29 colon
[6] = test system: HCT-116 colon
[7] = test system: PC-3 prostate
[8] = test system: T-47D breast
[9] = test system: TK-10 renal
[10] = test system: SN12C renal
[11] = test system: HOP-92 NSCLC
[12] = test system: COLO 205 colon

SMILES	TGI [1]	TGI [2]	TGI [3]	TGI [4]	TGI [5]	TGI [6]	TGI [7]	TGI [8]	TGI [9]	TGI [10]	TGI [11]	TGI [12]
CN1CC(c2ccccc2)=Cc2c1ccc(N)c2N=N	> 100 µM	> 100 µM	> 100 µM	> 100 µM	> 100 µM	> 100 µM	> 100 µM	> 100 µM	> 100 µM	> 100 µM		
C=C/C(C)=C/[C@H](C)C(=O)C[C@H](O)CC1CC(=O)NC(=O)C1	> 100 µM	> 100 µM		> 100 µM	> 100 µM	> 100 µM				> 100 µM	> 89.6 µM	> 100 µM
CC12CC3c4ccccc4CN1C3(c1ccccc1)OC2=O (stereo not drawn)	> 100 µM	> 100 µM	> 100 µM		> 100 µM	> 100 µM	> 100 µM	> 100 µM	> 100 µM	> 100 µM		> 100 µM
O=C1Nc2ccccc2C(=O)OC(Cc2ccccc2)=Nc2ccccc21	> 100 µM	> 100 µM	> 100 µM	> 100 µM	> 100 µM	> 100 µM	> 100 µM	> 100 µM	> 100 µM	> 100 µM		> 100 µM
CN(C)[C@@H]1C(=O)C(C(N)=O)=C(O)[C@@]2(O)C(=O)C3=C(O)c4c(O)cccc4C[C@H]3C[C@@H]12	4.68 µM		14.3 µM			3.28 µM			7.53 µM		5.19 µM	3.25 µM
COC(=O)Cc1c([C@@H]2Nc3ccccc3[C@H]2CC(=O)OC)[nH]c2ccccc12	> 100 µM	> 100 µM	> 100 µM	> 100 µM	> 100 µM	> 100 µM	> 100 µM		> 100 µM	> 100 µM	> 100 µM	34.8 µM
COc1c2nc(CCl)n(C)c(=O)c2c(OC)c2c(=O)n(C)c(CCl)nc12	3.29 µM	11.8 µM	2.43 µM	2.65 µM	2.87 µM		2.68 µM		1.76 µM	3.56 µM	> 100 µM	2.71 µM
CC(C)CN1CN(c2ccccc2)C2(CCN(CC(C)(c3ccc(F)cc3)C3OCCO3)CC2)C1=O (stereo not drawn)	17.2 µM	19.8 µM	15 µM	8.52 µM	5.94 µM	13.9 µM	14.3 µM	15.3 µM	23.4 µM	19.1 µM		3.71 µM
COc1ccc(-c2nc3ncccn3c2-c2ccc(S(C)=O)cc2)cc1 (stereo not drawn)	> 100 µM		> 100 µM		> 100 µM	> 100 µM	> 100 µM			> 100 µM	> 100 µM	> 100 µM
c1ccc2[nH]c(-c3nc4ccccc4o3)nc2c1	> 100 µM	> 100 µM	> 100 µM	> 100 µM	> 100 µM	> 100 µM			> 100 µM	> 100 µM	> 100 µM	> 100 µM
Nc1cc2c(cc1[N+](=O)[O-])[nH]c1c(-c3ccccc3)nccc12	55.4 µM	> 80.5 µM		31.5 µM	46.8 µM	36 µM				> 100 µM	42.7 µM	44.3 µM
CC1=C/C(=C(\c2ccc(N(C)C)cc2)c2ccc([N+](C)(C)C)cc2)C=CC1=[N+](C)C	17.6 µM	15.8 µM	43.8 µM	48.7 µM	77.9 µM	14.3 µM			14.9 µM	22.4 µM	30.6 µM	85.4 µM
CCOC(=O)NNC(=O)NCCNC(=O)NNC(=O)OCC	> 100 µM	> 100 µM		> 100 µM	> 100 µM	> 100 µM	> 100 µM	> 100 µM	> 100 µM	> 100 µM		> 100 µM
NCCC1(N)CCNCC1	> 100 µM	> 100 µM	> 100 µM		> 100 µM	> 100 µM	> 100 µM	> 100 µM	> 100 µM	> 100 µM	> 100 µM	> 100 µM
Cc1ccc(-c2cc(-c3ccco3)nc(N)n2)o1		> 100 µM	> 100 µM		> 100 µM	> 100 µM			> 100 µM	> 100 µM		> 100 µM
O=c1[nH]cnc2c1nnn2CCCn1nnc2c(=O)[nH]cnc21	> 100 µM	> 100 µM	> 100 µM	> 100 µM	> 100 µM	> 100 µM			> 100 µM	> 100 µM	> 100 µM	> 100 µM
C[N+]1(C)CC=C(N2CCOCC2)CC1	> 10 µM	> 10 µM	> 10 µM	> 10 µM	> 10 µM	> 10 µM	> 10 µM	> 10 µM	> 10 µM	> 10 µM		> 10 µM
CC1(C)CCc2c(cc3c(c2O)CCC(C)(C)O3)O1	> 100 µM	> 100 µM	> 100 µM	> 100 µM	> 100 µM	> 100 µM	> 100 µM	> 100 µM	> 100 µM	> 100 µM		> 100 µM
Cc1c2c(n3c(nc4ccccc43)c1C#N)N(c1ccc(Cl)cc1)CC2	> 100 µM	> 100 µM	> 100 µM	> 100 µM	> 100 µM	> 100 µM	> 100 µM		> 100 µM	> 100 µM	> 100 µM	> 100 µM
Cc1ccc(OP2(=O)Oc3ccc4ccccc4c3CN2c2ccc(Cl)cc2)cc1C (stereo not drawn)	> 100 µM	> 100 µM		> 100 µM	> 100 µM	> 100 µM				> 100 µM	> 100 µM	> 100 µM
CSc1nc2c(c(N(C)C)n1)C=Nn1c(nc3ccccc31)S2	> 100 µM		> 100 µM	> 100 µM	> 100 µM	> 100 µM	> 100 µM	> 100 µM	> 100 µM	> 100 µM	89.4 µM	> 100 µM
